Measured values from US20240116985A1, “STAPLED PEPTIDES AND METHODS THEREOF” (priority 2020, published 2024).

Test: CHI Log D procedure
Type: physicochemical
Settings: for chromatographic logD: pH 7.4, CHI Log D; for CHI Log D: pH 7.4

Compound | chromatographic logD | CHI Log D
CCCC[C@@H]1NC(=O)[C@H](CC(=O)O)NC(=O)[C@](C)(NC(=O)[C@H](C)NC(=O)[C@H](CC(=O)O)NC(=O)[C@H](Cc2ccccc2)NC(C)=O)CCCCCCC=CCOC(=O)N2CC[C@@](C(=O)N[C@@H](Cc3ccccc3)C(=O)N[C@@H](Cc3c[nH]c4ccccc34)C(=O)N[C@@H](CCC(N)=O)C(N)=O)(C2)NC(=O)[C@H](C(C)C)NC(=O)[C@H](Cc2ccccc2)NC(=O)[C@H](C)NC(=O)[C@H](C)NC1=O (single isomer, unassigned) [I-13, Ac-Phe-Asp-Ala-R8-Asp-nLeu-Ala-Ala-Phe-Val-PyrS-Phe-Trp-Gln-NH2] | 2.01 | –
CC(=O)N[C@@H](Cc1ccccc1)C(=O)N[C@@H](CC(=O)O)C(=O)N[C@@H](C)C(=O)N[C@]1(C)CCCCCCC=CCOC(=O)N2CC[C@@](C(=O)N[C@@H](Cc3ccccc3)C(=O)N[C@@H](Cc3c[nH]c4ccccc34)C(=O)N[C@@H](CCC(N)=O)C(N)=O)(C2)NC(=O)[C@H](C(C)C)NC(=O)[C@H](Cc2ccccc2)NC(=O)[C@H](C)NC(=O)[C@H](C)NC(=O)[C@H](CC2CCCCC2)NC(=O)[C@H](CC(=O)O)NC1=O (single isomer, unassigned) [I-15, Ac-Phe-Asp-Ala-R8-Asp-Cha-Ala-Ala-Phe-Val-PyrS-Phe-Trp-Gln-NH2] | 2.21 | –
CC(=O)N[C@@H](Cc1ccccc1)C(=O)N[C@@H](CC(=O)O)C(=O)N[C@@H](C)C(=O)N[C@]1(C)CCCCCCC=CCOC(=O)N2CC[C@@](C(=O)N[C@@H](Cc3ccccc3)C(=O)N[C@@H](Cc3c[nH]c4ccccc34)C(=O)N[C@@H](CCC(N)=O)C(N)=O)(C2)NC(=O)[C@H](C(C)C)NC(=O)[C@H](Cc2ccccc2)NC(=O)[C@H](C)NC(=O)[C@H](C)NC(=O)[C@H](CC2CCCCC2)NC(=O)[C@H](CC(=O)O)NC1=O (single isomer, unassigned) [I-16, Ac-Phe-Asp-Ala-R8-Asp-Cha-Ala-Ala-Phe-Val-PyrS-Phe-Trp-Gln-NH2] | – | 2.21
CC(=O)N[C@@H](Cc1ccccc1)C(=O)N[C@@H](CC(=O)O)C(=O)N[C@@H](C)C(=O)N[C@]1(C)CCCCCCC=CCOC(=O)N2CC[C@@](C(=O)N[C@@H](Cc3ccccc3)C(=O)N[C@@H](Cc3c[nH]c4ccccc34)C(=O)N[C@@H](CCC(N)=O)C(N)=O)(C2)NC(=O)[C@H](C(C)C)NC(=O)[C@H](Cc2ccccc2)NC(=O)[C@H](C)NC(=O)[C@H](C)NC(=O)[C@H](CCC(C)C)NC(=O)[C@H](CC(=O)O)NC1=O (single isomer, unassigned) [I-17, Ac-Phe-Asp-Ala-R8-Asp-hLeu-Ala-Ala-Phe-Val-PyrS-Phe-Trp-Gln-NH2] | 2.1 | –
CC(=O)N[C@@H](Cc1ccccc1)C(=O)N[C@@H](CC(=O)O)C(=O)N[C@@H](C)C(=O)N[C@]1(C)CCCCCCC=CCOC(=O)N2CC[C@@](C(=O)N[C@@H](Cc3ccccc3)C(=O)N[C@@H](Cc3c[nH]c4ccccc34)C(=O)N[C@@H](CCC(N)=O)C(N)=O)(C2)NC(=O)[C@H](C(C)C)NC(=O)[C@H](Cc2ccccc2)NC(=O)[C@H](C)NC(=O)[C@H](C)NC(=O)[C@H](CCC(C)C)NC(=O)[C@H](CC(=O)O)NC1=O (single isomer, unassigned) [I-18, Ac-Phe-Asp-Ala-R8-Asp-hLeu-Ala-Ala-Phe-Val-PyrS-Phe-Trp-Gln-NH2] | – | 2.108
CC(=O)N[C@@H](Cc1ccccc1)C(=O)N[C@@H](CC(=O)O)C(=O)N[C@@H](C)C(=O)N[C@]1(C)CCCCCCC=CCOC(=O)N2CC[C@@](C(=O)N[C@@H](Cc3ccccc3)C(=O)N[C@@H](Cc3c[nH]c4ccccc34)C(=O)N[C@@H](CCC(N)=O)C(N)=O)(C2)NC(=O)[C@H](C(C)C)NC(=O)[C@H](Cc2ccccc2)NC(=O)[C@H](CC(=O)O)NC(=O)[C@H](C)NC(=O)[C@H](CC(=O)O)NC(=O)[C@H](CC(=O)O)NC1=O (single isomer, unassigned) [I-19, Ac-Phe-Asp-Ala-R8-Asp-Asp-Ala-Asp-Phe-Val-PyrS-Phe-Trp-Gln-NH2] | 0.948 | –
CC(=O)N[C@@H](Cc1ccccc1)C(=O)N[C@@H](CC(=O)O)C(=O)N[C@@H](C)C(=O)N[C@]1(C)CCCCCCC=CCOC(=O)N2CC[C@@](C(=O)N[C@@H](Cc3ccccc3)C(=O)N[C@@H](Cc3c[nH]c4ccccc34)C(=O)N[C@@H](CCC(N)=O)C(N)=O)(C2)NC(=O)[C@H](C(C)C)NC(=O)[C@H](Cc2ccccc2)NC(=O)[C@H](CC(=O)O)NC(=O)[C@H](C)NC(=O)[C@H](CC(=O)O)NC(=O)[C@H](CC(=O)O)NC1=O (single isomer, unassigned) [I-20, Ac-Phe-Asp-Ala-R8-Asp-Asp-Ala-Asp-Phe-Val-PyrS-Phe-Trp-Gln-NH2] | – | 0.935
CC(=O)N[C@@H](Cc1ccccc1)C(=O)N[C@@H](CC(=O)O)C(=O)N[C@@H](C)C(=O)N[C@]1(C)CCCCCCC=CCOC(=O)N2CC[C@@](C(=O)N[C@@H](Cc3ccccc3)C(=O)N[C@@H](Cc3c[nH]c4ccccc34)C(=O)N[C@@H](CCC(N)=O)C(N)=O)(C2)NC(=O)[C@H](C(C)C)NC(=O)[C@H](Cc2ccccc2)NC(=O)[C@H](CCC(=O)O)NC(=O)[C@H](C)NC(=O)[C@H](CC(=O)O)NC(=O)[C@H](CC(=O)O)NC1=O (single isomer, unassigned) [I-21, Ac-Phe-Asp-Ala-R8-Asp-Asp-Ala-Glu-Phe-Val-PyrS-Phe-Trp-Gln-NH2] | 0.92 | –
CC(=O)N[C@@H](Cc1ccccc1)C(=O)N[C@@H](CC(=O)O)C(=O)N[C@@H](C)C(=O)N[C@]1(C)CCCCCCC=CCOC(=O)N2CC[C@@](C(=O)N[C@@H](Cc3ccccc3)C(=O)N[C@@H](Cc3c[nH]c4ccccc34)C(=O)N[C@@H](CCC(N)=O)C(N)=O)(C2)NC(=O)[C@H](C(C)C)NC(=O)[C@H](Cc2ccccc2)NC(=O)[C@H](CCC(=O)O)NC(=O)[C@H](C)NC(=O)[C@H](CC(=O)O)NC(=O)[C@H](CC(=O)O)NC1=O (single isomer, unassigned) [I-22, Ac-Phe-Asp-Ala-R8-Asp-Asp-Ala-Glu-Phe-Val-PyrS-Phe-Trp-Gln-NH2] | – | 0.911
CC(=O)N[C@@H](Cc1ccccc1)C(=O)N[C@@H](CC(=O)O)C(=O)N[C@@H](C)C(=O)N[C@]1(C)CCCN(C)C(=O)OCC=CCCCC[C@@](C)(C(=O)N[C@@H](Cc2ccccc2)C(=O)N[C@@H](Cc2c[nH]c3ccccc23)C(=O)N[C@@H](CCC(N)=O)C(N)=O)NC(=O)[C@H](C(C)C)NC(=O)[C@H](Cc2ccccc2)NC(=O)[C@H](C)NC(=O)[C@H](C)NC(=O)[C@H](CC(=O)O)NC(=O)[C@H](CC(=O)O)NC1=O (single isomer, unassigned) [I-29, Ac-Phe-Asp-Ala-ReN-Asp-Asp-Ala-Ala-Phe-Val-S6-Phe-Trp-Gln-NH2] | 1.6 | –

Results, then the molecule that gave them:

chromatographic logD | CHI Log D | Compound
1.32 | – | CC(=O)N[C@@H](Cc1ccccc1)C(=O)N[C@@H](CC(=O)O)C(=O)N[C@@H](C)C(=O)N[C@]1(C)CCCCCCC=CCOC(=O)N2CC[C@@](C(=O)N[C@@H](Cc3ccccc3)C(=O)N[C@@H](Cc3c[nH]c4ccccc34)C(=O)N[C@@H](CCC(N)=O)C(N)=O)(C2)NC(=O)[C@H](C(C)C)NC(=O)[C@H](Cc2ccccc2)NC(=O)[C@H](C)NC(=O)[C@H](C)NC(=O)[C@H](Cc2ccc(C(=O)O)cc2)NC(=O)[C@H](CC(=O)O)NC1=O (single isomer, unassigned) [I-7, Ac-Phe-Asp-Ala-R8-Asp-4COOHF-Ala-Ala-Phe-Val-PyrS-Phe-Trp-Gln-NH2]
– | 1.349 | CC(=O)N[C@@H](Cc1ccccc1)C(=O)N[C@@H](CC(=O)O)C(=O)N[C@@H](C)C(=O)N[C@]1(C)CCCCCCC=CCOC(=O)N2CC[C@@](C(=O)N[C@@H](Cc3ccccc3)C(=O)N[C@@H](Cc3c[nH]c4ccccc34)C(=O)N[C@@H](CCC(N)=O)C(N)=O)(C2)NC(=O)[C@H](C(C)C)NC(=O)[C@H](Cc2ccccc2)NC(=O)[C@H](C)NC(=O)[C@H](C)NC(=O)[C@H](Cc2ccc(C(=O)O)cc2)NC(=O)[C@H](CC(=O)O)NC1=O (single isomer, unassigned) [I-8, Ac-Phe-Asp-Ala-R8-Asp-4COOHF-Ala-Ala-Phe-Val-PyrS-Phe-Trp-Gln-NH2]
1.65 | – | CC(=O)N[C@@H](Cc1ccccc1)C(=O)N[C@@H](CC(=O)O)C(=O)N[C@@H](C)C(=O)N[C@]1(C)CCCCCCC=CCOC(=O)N2CC[C@@](C(=O)N[C@@H](Cc3ccccc3)C(=O)N[C@@H](Cc3c[nH]c4ccccc34)C(=O)N[C@@H](CCC(N)=O)C(N)=O)(C2)NC(=O)[C@H](C(C)C)NC(=O)[C@H](Cc2ccccc2)NC(=O)[C@H](C)NC(=O)[C@H](C)NC(=O)[C@H](Cc2cccnc2)NC(=O)[C@H](CC(=O)O)NC1=O (single isomer, unassigned) [I-9, Ac-Phe-Asp-Ala-R8-Asp-3PyrA-Ala-Ala-Phe-Val-PyrS-Phe-Trp-Gln-NH2]
– | 1.661 | CC(=O)N[C@@H](Cc1ccccc1)C(=O)N[C@@H](CC(=O)O)C(=O)N[C@@H](C)C(=O)N[C@]1(C)CCCCCCC=CCOC(=O)N2CC[C@@](C(=O)N[C@@H](Cc3ccccc3)C(=O)N[C@@H](Cc3c[nH]c4ccccc34)C(=O)N[C@@H](CCC(N)=O)C(N)=O)(C2)NC(=O)[C@H](C(C)C)NC(=O)[C@H](Cc2ccccc2)NC(=O)[C@H](C)NC(=O)[C@H](C)NC(=O)[C@H](Cc2cccnc2)NC(=O)[C@H](CC(=O)O)NC1=O (single isomer, unassigned) [I-10, Ac-Phe-Asp-Ala-R8-Asp-3PyrA-Ala-Ala-Phe-Val-PyrS-Phe-Trp-Gln-NH2]
2.27 | – | CC(=O)N[C@@H](Cc1ccccc1)C(=O)N[C@@H](CC(=O)O)C(=O)N[C@@H](C)C(=O)N[C@]1(C)CCCCCCC=CCOC(=O)N2CC[C@@](C(=O)N[C@@H](Cc3ccccc3)C(=O)N[C@@H](Cc3c[nH]c4ccccc34)C(=O)N[C@@H](CCC(N)=O)C(N)=O)(C2)NC(=O)[C@H](C(C)C)NC(=O)[C@H](Cc2ccccc2)NC(=O)[C@H](C)NC(=O)[C@H](C)NC(=O)[C@H](Cc2ccc(-c3ccccc3)cc2)NC(=O)[C@H](CC(=O)O)NC1=O (single isomer, unassigned) [I-11, Ac-Phe-Asp-Ala-R8-Asp-Bip-Ala-Ala-Phe-Val-PyrS-Phe-Trp-Gln-NH2]
– | 2.247 | CC(=O)N[C@@H](Cc1ccccc1)C(=O)N[C@@H](CC(=O)O)C(=O)N[C@@H](C)C(=O)N[C@]1(C)CCCCCCC=CCOC(=O)N2CC[C@@](C(=O)N[C@@H](Cc3ccccc3)C(=O)N[C@@H](Cc3c[nH]c4ccccc34)C(=O)N[C@@H](CCC(N)=O)C(N)=O)(C2)NC(=O)[C@H](C(C)C)NC(=O)[C@H](Cc2ccccc2)NC(=O)[C@H](C)NC(=O)[C@H](C)NC(=O)[C@H](Cc2ccc(-c3ccccc3)cc2)NC(=O)[C@H](CC(=O)O)NC1=O (single isomer, unassigned) [I-12, Ac-Phe-Asp-Ala-R8-Asp-Bip-Ala-Ala-Phe-Val-PyrS-Phe-Trp-Gln-NH2]
